pKi: −log10 of the molar value.
Key:
rA2A receptor = conditions: read-out: Ki at rA2A receptor; cited from earlier work
rat A2A AR = rat A2A AR (Rattus norvegicus, UniProt P30543); test: Radioligand binding to rA2A AR
Chain of rat A2A AR (P30543 whole entry): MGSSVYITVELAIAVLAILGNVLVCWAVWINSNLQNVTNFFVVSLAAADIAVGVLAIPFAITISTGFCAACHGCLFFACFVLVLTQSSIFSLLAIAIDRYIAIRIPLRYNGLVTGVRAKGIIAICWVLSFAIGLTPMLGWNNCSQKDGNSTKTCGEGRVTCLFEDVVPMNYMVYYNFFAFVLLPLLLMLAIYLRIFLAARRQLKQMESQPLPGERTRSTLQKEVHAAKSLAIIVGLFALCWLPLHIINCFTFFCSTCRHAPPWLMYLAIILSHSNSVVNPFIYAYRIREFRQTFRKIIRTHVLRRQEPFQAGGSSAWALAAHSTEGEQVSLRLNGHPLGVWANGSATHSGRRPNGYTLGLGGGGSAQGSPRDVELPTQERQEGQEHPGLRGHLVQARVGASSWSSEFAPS

Row | pKi (rat A2A AR) | SMILES | pKi (rA2A receptor)
1 | – | Nc1nc(NCCc2ccc(O)cc2)nc2nc(-c3ccco3)nn12 [ZM241385, 4-(2-[7-amino-2-{2-furyl}{1,2,4}triazolo{2,3-a}{1,3,5,}triazin-5-ylamino]ethyl)phenol] | 9.30 to 9.68
2 | 6.40 to 6.74 | CCCCCC(=O)Nc1nc(SC)nc2nc(-c3ccco3)nn12 [Compound 11, 2-(2-Furyl)-5-methylthio-7-n-pentylcarbonylamino-[1,2,4]-triazolo[1,5-a]-[1,3,5]triazine] | –
